# Structures can show the parent of a compound that is named as a salt. Where two headings read alike, the source gives them in different places.
# Molecular target: T1, Na+-dependent bile acid transport system (Oryctolagus cuniculus, UniProt Q28727)
# T1 construct: brush-border membrane vesicles from the ileum of rabbits; from tissue; host or cells: terminal ileum of male New Zealand rabbits, brush-border membrane vesicles
# T1 sequence (Q28727 1-347): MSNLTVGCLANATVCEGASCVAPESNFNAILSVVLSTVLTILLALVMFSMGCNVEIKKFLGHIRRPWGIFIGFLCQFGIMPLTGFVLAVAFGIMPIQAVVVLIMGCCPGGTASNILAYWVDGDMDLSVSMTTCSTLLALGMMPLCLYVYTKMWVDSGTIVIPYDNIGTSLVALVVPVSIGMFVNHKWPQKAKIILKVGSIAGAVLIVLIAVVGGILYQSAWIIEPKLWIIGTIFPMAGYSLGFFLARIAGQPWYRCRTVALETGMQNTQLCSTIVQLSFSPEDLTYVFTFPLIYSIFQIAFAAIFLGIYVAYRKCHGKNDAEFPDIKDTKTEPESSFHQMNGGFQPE
# Experiment: Inhibition of Na+-dependent [3H]taurocholate absorption into brush-border membrane vesicles of the ileum
# Type: biochemical, rabbit
# Experimental: The preparation of brush-border membrane vesicles from the intestinal cells of the small intestine was carried out using the so-called Mg^2+ precipitation method. Male New Zealand rabbits (2-2.5 kg body weight) were sacrificed by intravenous injection of 0.5 ml of T-61^R. The small intestine was removed and rinsed with ice-cold physiological saline solution. The terminal 3/10 of the small intestine (measured in the oral-rectal direction, i.e. the terminal ileum, which contains the active Na^+ -dependent bile acid transport system) were used for preparation of the brush-border membrane vesicles. The intestines were frozen at -80° C. under nitrogen in plastic bags. The frozen intestines were thawed in a water bath at 30° C. in order to prepare the membrane vesicles. The mucosa was scraped off and suspended in 60 ml of ice-cold 12 mM trys/HCl buffer (pH 7.1)/300 mM mannitol, 5 mM EGTA/10 mg/l of phenylmethylsulfonyl fluoride/1 mg/l of soybean trypsin inhibitor (32 U/mg)/0.5 mg/l of bovine lung trypsin inhibitor (193 U/mg)/5 mg/l of bacitracin. After diluting to 300 ml with ice-cold distilled water, the suspension was homogenized with ice-cooling for 3 minutes at 75% of maximum power using an Ultraturrax (18 rod, IKA Werk Staufen, Federal Republic of Germany). After addition of 3 ml of 1M MgCl2 solution (final concentration 10 mM), the homogenate was allowed to stand at 0° C. for exactly 1 minute. As a result of addition of Mg^2+, the cell membranes aggregate and precipitate with the exception of the brush-border membranes. After centrifugation at 3,000×g (5,000 rpm, SS-34 rotor) for 15 minutes, the precipitate is discarded and the supernatant which contains the brush-border membranes is centrifuged at 26,700×g (15,000 rpm, SS-34 rotor) for 30 minutes. The supernatant was discarded, and the precipitate was rehomogenized in 60 ml of 12 mM tris/HCl buffer (pH 7.1)/60 mM mannitol, 5 mM EGTA using a Potter Elvejhem homogenizer (Braun Melsungen, 900 rpm, 10 strokes). After addition of 0.1 ml of 1M MgCl2 solution and an incubation time of 15 minutes at 0° C., the mixture was again centrifuged at 3,000×g for 15 minutes. The supernatant was then again centrifuged at […] (15,000 rpm, SS-34 rotor) for 30 minutes. The precipitate was taken up in 30 ml of 10 mM tris/hepes buffer (pH 7.4)/300 mM mannitol and homogeneously resuspended by 20 strokes in a Potter Elvejhem homogenizer at 1,000 rpm. After centrifugation at 48,000×g (20,000 rpm, SS-34 rotor) for 30 minutes, the precipitate was taken up in 0.5 to 2 ml of tris/hepes buffer (pH 7.4)/280 mM mannitol (final concentration 20 mg/ml) and resuspended with the aid of a tuberculin syringe using a 27 gauge needle. The vesicles were either used immediately after preparation for transport investigations or stored at -196° C. in liquid nitrogen in 4 mg portions.
# The absorption of substrates into brush-border membrane vesicles was determined by means of the so-called membrane filtration technique. 10 μl of the vesicle suspension (100 μg of protein) were pipetted on the wall of a polystyrene incubation tube (11×70 mm) as a drop which contained the incubation medium together with the corresponding ligands (90 μl ). […] The incubation medium was filtered through a polyvinylidene fluoride membrane filter (SYHV LO 4NS, 0.45 μm, 4 mm .phi., Millipore, Eschborn, Federal Republic of Germany). The transport measurement was begun by mixing the vesicles with the incubation medium. […] After the desired incubation time (customarily 1 min), the transport was stopped by addition of 1 ml of ice-cold stop solution (10 mM tris/hepes, (pH 7.4)/150 mM KCl). The resulting mixture was immediately filtered off with suction in a vacuum of 25 to 35 mbar through a membrane filter made of cellulose nitrate (ME 25, 0.45 μm, 25 mm diameter, Schleicher & Schuell, Dassell, Federal Republic of Germany). The filter was subsequently washed with 5 ml of ice-cold Stop solution.
# [1] = Na+-dependent transport component, 50 μM taurocholate
SMILES,IC50,IC25 [1],IC75 [1],IC25,IC75,IC50 (read-out: IC50)
C[C@H](CCC(=O)O)[C@H]1CC[C@H]2[C@@H]3[C@H](O)C[C@@H]4C[C@@H](OCCNC(=O)CCCc5ccc(N(CCCl)CCCl)cc5)CC[C@]4(C)[C@H]3C[C@H](O)[C@]12C [Example 66],86.5 µM,60 µM,148 µM,,,
C[C@H](CCC(=O)NCC(=O)O)[C@H]1CC[C@H]2[C@@H]3[C@H](O)C[C@@H]4C[C@@H](OCCNC(=O)CCCc5ccc(N(CCCl)CCCl)cc5)CC[C@]4(C)[C@H]3C[C@H](O)[C@]12C [Example 68],89 µM,60 µM,250 µM,,,
CC(C)c1cc(-c2ccc(F)cc2)c(OC[C@@H](O)C[C@@H](O)CC(=O)NCCO[C@H]2CC[C@@]3(C)[C@@H](C2)C[C@@H](O)[C@@H]2[C@@H]3C[C@H](O)[C@]3(C)[C@@H]([C@H](C)CCC(=O)O)CC[C@@H]23)c(C(C)C)c1 [Example 81],,,,15 µM,64 µM,38 µM
CC(C)c1cc(-c2ccc(F)cc2)c(OC[C@@H](O)C[C@@H](O)CC(=O)NCCCO[C@H]2CC[C@@]3(C)[C@@H](C2)C[C@@H](O)[C@@H]2[C@@H]3C[C@H](O)[C@]3(C)[C@@H]([C@H](C)CCC(=O)O)CC[C@@H]23)c(C(C)C)c1 [Example 82 (Na salt)],,,,17 µM,80 µM,48 µM
CC(C)c1nc(-c2ccccc2)cc(-c2ccc(F)cc2)c1/C=C/[C@@H](O)C[C@@H](O)CC(=O)NCCO[C@H]1CC[C@@]2(C)[C@@H](C1)C[C@@H](O)[C@@H]1[C@@H]2C[C@H](O)[C@]2(C)[C@@H]([C@H](C)CCC(=O)O)CC[C@@H]12 [Example 85],,,,18 µM,64 µM,43 µM
CC(C)c1nc(-c2ccccc2)cc(-c2ccc(F)cc2)c1/C=C/[C@@H](O)C[C@@H](O)CC(=O)NCCCO[C@H]1CC[C@@]2(C)[C@@H](C1)C[C@@H](O)[C@@H]1[C@@H]2C[C@H](O)[C@]2(C)[C@@H]([C@H](C)CCC(=O)O)CC[C@@H]12 [Example 86],,,,14 µM,87 µM,62 µM
CC(C)c1nc(-c2ccccc2)cc(-c2ccc(F)cc2)c1/C=C/[C@@H](O)C[C@@H](O)CC(=O)NCCCO[C@@H]1CC[C@@]2(C)[C@@H](C1)C[C@@H](O)[C@@H]1[C@@H]2C[C@H](O)[C@]2(C)[C@@H]([C@H](C)CCC(=O)O)CC[C@@H]12 [Example 87],,,,16 µM,70 µM,56 µM
Cc1cc(C(=C(/C=C/[C@@H](O)C[C@@H](O)CC(=O)NCCO[C@H]2CC[C@@]3(C)[C@@H](C2)C[C@@H](O)[C@@H]2[C@@H]3C[C@H](O)[C@]3(C)[C@@H]([C@H](C)CCC(=O)O)CC[C@@H]23)C(C)C)c2ccc(F)c(C)c2)ccc1F [Example 90],,,,3.8 µM,27 µM,12 µM
CC(C)c1cc(Sc2ccc(F)cc2)cc(-c2ccc(F)cc2)c1OC[C@@H](O)C[C@@H](O)CC(=O)NCCO[C@H]1CC[C@@]2(C)[C@@H](C1)C[C@@H](O)[C@@H]1[C@@H]2C[C@H](O)[C@]2(C)[C@@H]([C@H](C)CCC(=O)O)CC[C@@H]12 [Example 93],,,,3.2 µM,23 µM,8 µM
CC(C)c1cc(Sc2ccc(F)cc2)cc(-c2ccc(F)cc2)c1OC[C@@H](O)C[C@@H](O)CC(=O)NCCCO[C@H]1CC[C@@]2(C)[C@@H](C1)C[C@@H](O)[C@@H]1[C@@H]2C[C@H](O)[C@]2(C)[C@@H]([C@H](C)CCC(=O)O)CC[C@@H]12 [Example 94],,,,4.5 µM,24 µM,13 µM
CC(C)c1cc(-c2ccc(F)cc2)c(OC[C@@H](O)C[C@@H](O)CC(=O)NCCO[C@H]2CC[C@@]3(C)[C@@H](C2)C[C@@H](O)[C@@H]2[C@@H]3C[C@H](O)[C@]3(C)[C@@H]([C@H](C)CCC(=O)NCC(=O)O)CC[C@@H]23)c(C(C)C)c1 [Example 101],,,,19 µM,68 µM,40 µM
CC(C)c1nc(-c2ccccc2)cc(-c2ccc(F)cc2)c1/C=C/[C@@H](O)C[C@@H](O)CC(=O)NCCO[C@H]1CC[C@@]2(C)[C@@H](C1)C[C@@H](O)[C@@H]1[C@@H]2C[C@H](O)[C@]2(C)[C@@H]([C@H](C)CCC(=O)NCC(=O)O)CC[C@@H]12 [Example 105],,,,11 µM,45 µM,22.5 µM
CC(C)c1cc(-c2ccc(F)cc2)c(OC[C@@H](O)C[C@@H](O)CC(=O)NCCO[C@H]2CC[C@@]3(C)[C@@H](C2)C[C@@H](O)[C@@H]2[C@@H]3C[C@H](O)[C@]3(C)[C@@H]([C@H](C)CCC(=O)NCCS(=O)(=O)O)CC[C@@H]23)c(C(C)C)c1 [Example 111],,,,10 µM,39 µM,24 µM
CC(C)c1nc(-c2ccccc2)cc(-c2ccc(F)cc2)c1/C=C/[C@@H](O)C[C@@H](O)CC(=O)NCCO[C@H]1CC[C@@]2(C)[C@@H](C1)C[C@@H](O)[C@@H]1[C@@H]2C[C@H](O)[C@]2(C)[C@@H]([C@H](C)CCC(=O)NCCS(=O)(=O)O)CC[C@@H]12 [Example 115 (Na salt)],,,,12 µM,44 µM,28 µM
"COC(=O)CC[C@@H](C)[C@H]1CC[C@H]2[C@@H]3[C@H](O)C[C@@H]4C[C@@H](OCCNC(=O)[C@@H](C)NC(=O)[C@@H](C)NC(=O)OCc5ccccc5)CC[C@]4(C)[C@H]3C[C@H](O)[C@]12C [Example 119, Z-D-Ala-D-Ala-NH--(CH2)2 --GS--OCH3]",,,,48 µM,,134 µM
"COC(=O)CC[C@@H](C)[C@H]1CC[C@H]2[C@@H]3[C@H](O)C[C@@H]4C[C@@H](OCCNC(=O)[C@@H](C)NC(=O)[C@@H](C)N)CC[C@]4(C)[C@H]3C[C@H](O)[C@]12C [Example 120, H-D-Ala-D-Ala-NH--(CH2)2 --GS--OCH3]",,,,38 µM,178 µM,87 µM
"C[C@H](CCC(=O)O)[C@H]1CC[C@H]2[C@@H]3[C@H](O)C[C@@H]4C[C@@H](OCCNC(=O)[C@@H](C)NC(=O)[C@@H](C)N)CC[C@]4(C)[C@H]3C[C@H](O)[C@]12C [Example 121, H-D-Ala-D-Ala-NH--(CH2)2 --GS--OH]",,,,30 µM,172 µM,84 µM
"C[C@H](CCC(=O)O)[C@H]1CC[C@H]2[C@@H]3[C@H](O)C[C@@H]4C[C@@H](OCCNC(=O)[C@@H](C)NC(=O)[C@@H](C)NC(=O)OCc5ccccc5)CC[C@]4(C)[C@H]3C[C@H](O)[C@]12C [Example 122, Z-D-Ala-D-Ala-NH--(CH2)2 --GS--OH]",,,,19 µM,237 µM,107 µM
"CC(C)c1nc(-c2ccccc2)cc(-c2ccc(F)cc2)c1/C=C/[C@@H]1C[C@@H](O)CC(=O)O1 [Example 125, reference compound]",,,,12 µM,104 µM,46 µM
"C[C@H](CCC(=O)NCCS(=O)(=O)O)[C@H]1CC[C@H]2[C@@H]3[C@H](O)C[C@@H]4C[C@H](O)CC[C@]4(C)[C@H]3CC[C@]12C [Taurochenodeoxycholate, reference compound]",,,,,,23 µM

# — US5462933A, “Modified bile acid conjugates, and their use as pharmaceuticals” (Hoechst Aktiengesellschaft, priority 1989, dated 1995)
